Experiments:
CHP-134 cells = assay: CHP134 CellTiter-Glo (CTG) Assay; assay type: cell-based; details: Homo sapiens, CHP-134, 120 h, 5 days, viable cells by CellTiter-Glo
How it was run: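 Nine-point 1:3 dilution series, diluted into growth media, added in quadruplicate to CHP-134 cells plated 16 h earlier at 200 cells/well.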

human recombinant PLK4 = human recombinant PLK4 (Homo sapiens (Human), UniProt O00444); assay: PLK4 Biochemical Assay (ADP-Glo); details: 0.5 nM PLK4, 8.0 µM ATP, 4.7 µM MBP, 6 hours at RT
How it was run: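 Luminescent ADP-Glo detection quantified ADP production, with ATP depletion for 40 min and detection for 30 min at room temperature. Compound and PLK4 (1.0 nM stock addition) were preincubated 15 min in HEPES pH 7.5 buffer containing MgCl2, EGTA, DTT, Brij-35 and BSA. IC50 values were obtained by four-parameter nonlinear regression.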

[1] = target: human recombinant Aurora B (Homo sapiens (Human), UniProt Q96GD4); assay: Aurora B Kinase Biochemical Assay (ADP-Glo); details: ratio of Aurora B IC50 to PLK4 IC50 (selectivity)
How it was run: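 IC50 derived by four-parameter nonlinear fit of ADP-Glo luminescence (ADP produced). Compound was preincubated 15 min at RT with 20 nM recombinant human Aurora B, in 50 mM HEPES pH 7.5, 10 mM MgCl2, 1 mM EGTA, 1 mM DTT, 0.01% Brij-35/BSA.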

[2] = target: human recombinant Aurora A (Homo sapiens (Human), UniProt O14965); assay: Aurora A Kinase Biochemical Assay (ADP-Glo); details: ratio of Aurora A IC50 to PLK4 IC50 (selectivity)
human recombinant Aurora A, sequence (O14965 whole entry): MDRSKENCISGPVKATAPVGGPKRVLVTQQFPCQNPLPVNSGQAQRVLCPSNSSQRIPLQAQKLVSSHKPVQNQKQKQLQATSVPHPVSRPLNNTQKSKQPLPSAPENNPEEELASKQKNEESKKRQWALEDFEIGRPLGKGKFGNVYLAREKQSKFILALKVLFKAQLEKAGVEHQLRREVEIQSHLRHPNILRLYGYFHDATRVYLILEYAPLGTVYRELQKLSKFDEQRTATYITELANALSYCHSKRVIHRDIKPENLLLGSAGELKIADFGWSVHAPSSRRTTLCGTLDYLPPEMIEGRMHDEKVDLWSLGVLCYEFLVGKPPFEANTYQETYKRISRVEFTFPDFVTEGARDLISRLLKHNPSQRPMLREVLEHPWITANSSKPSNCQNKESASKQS

human recombinant PLK4, sequence (O00444 whole entry): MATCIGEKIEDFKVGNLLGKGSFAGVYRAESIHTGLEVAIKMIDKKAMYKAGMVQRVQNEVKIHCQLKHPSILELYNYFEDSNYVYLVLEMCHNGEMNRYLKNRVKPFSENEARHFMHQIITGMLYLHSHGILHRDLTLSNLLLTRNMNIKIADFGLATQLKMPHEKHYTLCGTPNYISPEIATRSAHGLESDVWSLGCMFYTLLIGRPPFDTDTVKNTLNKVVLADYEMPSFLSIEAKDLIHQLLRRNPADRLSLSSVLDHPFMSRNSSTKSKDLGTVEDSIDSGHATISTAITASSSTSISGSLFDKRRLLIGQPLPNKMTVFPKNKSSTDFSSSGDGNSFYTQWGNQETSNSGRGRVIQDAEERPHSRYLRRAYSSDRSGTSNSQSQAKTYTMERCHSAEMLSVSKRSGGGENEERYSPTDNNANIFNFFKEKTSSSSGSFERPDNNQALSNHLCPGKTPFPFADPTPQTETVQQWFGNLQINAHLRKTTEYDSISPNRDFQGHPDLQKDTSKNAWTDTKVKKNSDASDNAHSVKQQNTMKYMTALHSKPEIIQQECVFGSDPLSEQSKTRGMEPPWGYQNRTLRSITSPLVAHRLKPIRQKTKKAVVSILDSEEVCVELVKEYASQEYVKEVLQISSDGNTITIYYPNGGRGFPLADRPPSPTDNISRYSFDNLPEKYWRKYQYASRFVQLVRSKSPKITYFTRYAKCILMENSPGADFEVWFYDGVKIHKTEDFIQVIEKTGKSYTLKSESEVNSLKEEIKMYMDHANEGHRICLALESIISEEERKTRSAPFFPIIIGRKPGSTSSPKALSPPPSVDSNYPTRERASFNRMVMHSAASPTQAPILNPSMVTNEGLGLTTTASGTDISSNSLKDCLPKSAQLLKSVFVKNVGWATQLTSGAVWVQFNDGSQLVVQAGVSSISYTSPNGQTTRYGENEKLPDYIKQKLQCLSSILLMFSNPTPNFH
human recombinant Aurora B, sequence (Q96GD4 whole entry): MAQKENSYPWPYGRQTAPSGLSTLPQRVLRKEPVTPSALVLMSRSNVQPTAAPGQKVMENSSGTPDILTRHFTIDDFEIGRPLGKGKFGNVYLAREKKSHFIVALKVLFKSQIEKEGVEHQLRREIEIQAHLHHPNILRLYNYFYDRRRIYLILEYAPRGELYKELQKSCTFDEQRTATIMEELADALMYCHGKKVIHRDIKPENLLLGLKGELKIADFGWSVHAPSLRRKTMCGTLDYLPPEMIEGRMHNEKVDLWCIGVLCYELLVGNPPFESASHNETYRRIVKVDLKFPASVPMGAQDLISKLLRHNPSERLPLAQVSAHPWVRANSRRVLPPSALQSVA

Structure (SMILES) | IC50 (human recombinant PLK4) [nM] | [Aurora B IC50 (nM)]/[PLK4 IC50 (nM)] [1] | [Aurora A IC50 (nM)]/[PLK4 IC50 (nM)] [2] | IC50 (CHP-134 cells) [nM]
COc1ccc2c(c1)[C@]1(C[C@H]1c1ccc3c(Nc4nc(C5COC5)ncc4Cl)n[nH]c3c1)C(=O)N2 [Example 118, (1R,2S)-2-(3-{[5-chloro-2-(oxetan-3-yl)pyrimidin-4-yl]amino}-1H-indazol-6-yl)-5′-methoxyspiro[cyclopropane-1,3′-indol]-2′(1′H)-one] | 7.32 | 902.3357 | 457.0413 | 2360
COc1ccc2c(c1)[C@]1(C[C@H]1c1ccc3c(Nc4ccc(C(=O)NCC(F)F)nc4OC)n[nH]c3c1)C(=O)N2 [Example 244, N-(2,2-difluoroethyl)-6-methoxy-5-({6-[(1R,2S)-5′-methoxy-2′-oxo-1′,2′-dihydrospiro[cyclopropane-1,3′-indol]-2-yl]-1H-indazol-3-yl}amino)pyridine-2-carboxamide] | 2.91 | 312.3 | 1578.3505 | 545
COc1ccc2c(c1)[C@]1(C[C@H]1c1ccc3c(Nc4ccc(C(=O)N(C)C(C)C)nc4OC)n[nH]c3c1)C(=O)N2 [Example 194, 6-methoxy-5-({6-[(1R,2S)-5′-methoxy-2′-oxo-1’,2′-dihydrospiro[cyclopropane-1,3′-indol]-2-yl]-1H-indazol-3-yl}amino)-N-methyl-N-(propan-2-yl)pyridine-2-carboxamide] | 0.965 | 103.7306 | 805.6995 | 126
COc1ccc2c(c1)[C@]1(C[C@H]1c1ccc3c(Nc4cc(S(=O)(=O)C(C)C)ccc4OC)n[nH]c3c1)C(=O)N2 [Example 178, (1R,2S)-5′-methoxy-2-{3-[2-methoxy-5-(propane-2-sulfonyl)anilino]-1H-indazol-6-yl}spiro[cyclopropane-1,3′-indol]-2′(1′H)-one] | 3.29 | 15179.1135 | 15179.1135 | 631
COc1ccc2c(c1)[C@]1(C[C@H]1c1ccc3c(Nc4nc(C#N)nc(N5CCS(=O)(=O)CC5)c4OC)n[nH]c3c1)C(=O)N2 [Example 62, 4-(l,l-dioxidothiomorpholino)-5-methoxy-6-((6-((lR,2S)-5′-methoxy-2′-oxospiro[cyclopropane-1,3′-indolin]-2-yl)-1H-indazol-3-yl)amino)pyrimidine-2-carbonitrile] | 16.9 | 946.7771 | 540.9225 | 10000
COc1ccc2c(c1)[C@]1(C[C@H]1c1ccc3c(Nc4ncnc(N5CCOCC5)c4OC(F)F)n[nH]c3c1)C(=O)N2 [Example 109, (1R,2S)-2-(3-{[5-(difluoromethoxy)-6-(morpholin-4-yl)pyrimidin-4-yl]amino}-lH-indazol-6-yl)-5′-methoxyspiro[cyclopropane-1,3′-indol]-2′(1′H)-one] | 6.76 | 11070 | 50000 | 1870
CCc1ncc(OC)c(Nc2n[nH]c3cc([C@@H]4C[C@@]45C(=O)Nc4ccc(OC)cc45)ccc23)n1 [Example 160, (1R,2S)-2-{3-[(2-ethyl-5-methoxypyrimidin-4-yl)amino]-1H-indazol-6-yl}-5′-methoxyspiro[cyclopropane-1,3′-indol]-2′(1′H)-one] | 1.93 | 149.5859 | 545.5487 | 310
COc1ccc2c(c1)[C@]1(C[C@H]1c1ccc3c(Nc4nc(N5CC[C@@H](F)C5)ncc4OC)n[nH]c3c1)C(=O)N2 [Example 169] | 0.995 | 431.4573 | 666.9347 | 188
COc1ccc2c(c1)[C@]1(C[C@H]1c1ccc3c(Nc4nc(C)nc(N5CCOCC5)c4OC)n[nH]c3c1)C(=O)N2 [Example 41, (1R,2S)-5′-methoxy-2-(3-{[5-methoxy-2-methyl-6-(morpholin-4-yl)pyrimidin-4-yl]amino}-1H-indazol-6-yl)spiro[cyclopropane-1,3′-indol]-2′(1′H)-one] | 2.71 | 471.4128 | 2257.47 | 844
COc1ccc2c(c1)[C@]1(C[C@H]1c1ccc3c(Nc4nc(N5CCC(F)(F)C5)ncc4OC)n[nH]c3c1)C(=O)N2 [Example 170, (1R,2S)-2-(3-{[2-(3,3-difluoropyrrolidin-1-yl)-5-methoxypyrimidin-4-yl]amino}-1H-indazol-6-yl)-5′-methoxyspiro[cyclopropane-1,3′-indol]-2′(1′H)-one] | 1.36 | 587.9234 | 694.1090 | 326

Further molecules by falling IC50 (human recombinant PLK4), results first:

IC50 (human recombinant PLK4) [nM] | [Aurora B IC50 (nM)]/[PLK4 IC50 (nM)] [1] | [Aurora A IC50 (nM)]/[PLK4 IC50 (nM)] [2] | Structure (SMILES) | IC50 (CHP-134 cells) [nM]
10.7 | 231.7370 | 1888.2629 | COc1ccc2c(c1)[C@]1(C[C@H]1c1ccc3c(Nc4ncnc(N5CCOCC5)c4OC)n[nH]c3c1)C(=O)N2C [Example 113, (1R,2S)-5′-methoxy-2-(3-{[5-methoxy-6-(morpholin-4-yl)pyrimidin-4-yl]amino}-1H-indazol-6-yl)-1′-methylspiro[cyclopropane-1,3′-indol]-2′(1′H)-one] | 2520
6.27 | 191.7065 | 7974.4817 | COc1ccc2c(c1)[C@]1(C[C@H]1c1ccc3c(Nc4ccc(C(=O)N5CC6(COC6)C5)nc4OC)n[nH]c3c1)C(=O)N2 [Example 188, (1R,2S)-5′-methoxy-2-(3-{[2-methoxy-6-(2-oxa-6-azaspiro[3.3]heptane-6-carbonyl)pyridin-3-yl]amino}-1H-indazol-6-yl)spiro[cyclopropane-1,3′-indol]-2′(1′H)-one] | 760
4.09 | 202.96 | 324.94 | COc1ccc2c(c1)[C@]1(C[C@H]1c1ccc3c(Nc4nc(C#N)ncc4OC)n[nH]c3c1)C(=O)N2 [Example 172, 5-methoxy-4-({6-[(1R,2S)-5′-methoxy-2′-oxo-1′,2′-dihydrospiro[cyclopropane-1,3′-indol]-2-yl]-1H-indazol-3-yl}amino)pyrimidine-2-carbonitrile] | 1260
3.81 | 684.6657 | 444.0366 | COc1ccc2c(c1)[C@]1(C[C@H]1c1ccc3c(Nc4nc(N5CC(O)C5)ncc4Cl)n[nH]c3c1)C(=O)N2 [Example 120, (1R,2S)-2-(3-{[5-chloro-2-(3-hydroxyazetidin-1-yl)pyrimidin-4-yl]amino}-1H-indazol-6-yl)-5′-methoxyspiro[cyclopropane-1,3′-indol]-2′(1′H)-one] | 10000
2.89 | 1337.0280 | 2750.2597 | COc1ccc2c(c1)[C@]1(C[C@H]1c1ccc3c(Nc4nc(C(C)C)ncc4OC(F)F)n[nH]c3c1)C(=O)N2 [Example 128, (1R,2S)-2-(3-{[5-(difluoromethoxy)-2-(propan-2-yl)pyrimidin-4-yl]amino}-1H-indazol-6-yl)-5′-methoxyspiro[cyclopropane-1,3′-indol]-2′(1′H)-one] | 1490
1.57 | 406.8833 | 789.0376 | COc1ccc2c(c1)[C@]1(C[C@H]1c1ccc3c(Nc4ncc(S(=O)(=O)N5CCCO5)cc4OC)n[nH]c3c1)C(=O)N2 [Example 267, (1R,2S)-5′-methoxy-2-(3-{[3-methoxy-5-(1,2-oxazolidine-2-sulfonyl)pyridin-2-yl]amino}-1H-indazol-6-yl)spiro[cyclopropane-1,3′-indol]-2′(1′H)-one] | 325
1.56 | 740.3846 | 3459.6154 | CCOc1cnc(SC)nc1Nc1n[nH]c2cc([C@@H]3C[C@@]34C(=O)Nc3ccc(OC)cc34)ccc12 [Example 195, (1R,2S)-2-(3-{[5-ethoxy-2-(methylsulfanyl)pyrimidin-4-yl]amino)-1H-indazol-6-yl)-5′-methoxyspiro[cyclopropane-1,3′-indol]-2′(1′H)-one] | 160
0.874 | 769.9084 | 1159 | COc1ccc2c(c1)[C@]1(C[C@H]1c1ccc3c(Nc4ncc(S(=O)(=O)N5CCC5)cc4OC)n[nH]c3c1)C(=O)N2 [Example 268, (1R,2S)-2-(3-{[5-(azetidine-1-sulfonyl)-3-methoxypyridin-2-yl]amino}-1H-indaxol-6-yl)-5′-methoxyspiro[cyclopropane-1,3′-indol]-2′(1′H)-one] | 124
0.65 | 181.6923 | 1133.6923 | COc1ccc2c(c1)[C@]1(C[C@H]1c1ccc3c(Nc4ncc(C(=O)N5CCC5)cc4OC)n[nH]c3c1)C(=O)N2 [Example 263, (1R,2S)-2-(3-{[5-(azetidine-1-carbonyl)-3-methoxypyridin-2-yl]amino}-1H-indazol-6-yl)-5′-methoxyspiro[cyclopropane-1,3′-indol]-2′(1′H)-one] | 599

Source: US20230365537A1, “POLO LIKE KINASE 4 INHIBITORS” (ORIC Pharmaceuticals, Inc., priority 2021, published 2023)
